± gives the standard deviation of the averaged measurements.
Assays:
Details in all cases: 72 h
Vero E6 [1] = experiment: relative viability EC50 (midpoint between 100% and the lowest measured viability); higher = less toxic
Caco-2 [2] = experiment: as above
Calu-3 [3] = experiment: as above
U2OS [4] = experiment: as above
HepG2 [5] = experiment: as above
Vero E6 [6] = experiment: drug sensitivity score (DSS) for viability; higher = more toxic; extreme values may be limits of the assay
Caco-2 [7] = experiment: as above
Calu-3 [8] = experiment: as above
U2OS [9] = experiment: as above
HepG2 [10] = experiment: as above
Vero E6 [11] = experiment: cell viability relative to DMSO; higher = less toxic
Caco-2 [12] = experiment: as above
Calu-3 [13] = experiment: as above
U2OS [14] = experiment: as above
HepG2 [15] = experiment: as above

SMILES | relative viability EC50 (Vero E6 [1]) | relative viability EC50 (Caco-2 [2]) | relative viability EC50 (Calu-3 [3]) | relative viability EC50 (U2OS [4]) | relative viability EC50 (HepG2 [5]) | drug sensitivity score (Vero E6 [6]) | drug sensitivity score (Caco-2 [7]) | drug sensitivity score (Calu-3 [8]) | drug sensitivity score (U2OS [9]) | drug sensitivity score (HepG2 [10]) | cell viability (Vero E6 [11]; 1 nM) | cell viability (Vero E6 [11]; 10 nM) | cell viability (Vero E6 [11]; 100 nM) | cell viability (Vero E6 [11]; 1000 nM) | cell viability (Vero E6 [11]; 10000 nM) | cell viability (Caco-2 [12]; 1 nM) | cell viability (Caco-2 [12]; 10 nM) | cell viability (Caco-2 [12]; 100 nM) | cell viability (Caco-2 [12]; 1000 nM) | cell viability (Caco-2 [12]; 10000 nM) | cell viability (Calu-3 [13]; 1 nM) | cell viability (Calu-3 [13]; 10 nM) | cell viability (Calu-3 [13]; 100 nM) | cell viability (Calu-3 [13]; 1000 nM) | cell viability (Calu-3 [13]; 10000 nM) | cell viability (U2OS [14]; 1 nM) | cell viability (U2OS [14]; 10 nM) | cell viability (U2OS [14]; 100 nM) | cell viability (U2OS [14]; 1000 nM) | cell viability (U2OS [14]; 10000 nM) | cell viability (HepG2 [15]; 1 nM) | cell viability (HepG2 [15]; 10 nM) | cell viability (HepG2 [15]; 100 nM) | cell viability (HepG2 [15]; 1000 nM) | cell viability (HepG2 [15]; 10000 nM)
N[C@@H](C(=O)O)c1ccc(C(=O)O)c(C(=O)O)c1 (racemic) [3,4-DCPG-(+/-)] | > 10 µM | > 10 µM | > 10 µM | > 10 µM | > 10 µM | 0 | 0 | 0 | 0 | 0 | 96.8 ± 6% | 101 ± 3.4% | 96 ± 2.5% | 100 ± 3.2% | 105 ± 4.1% | 101 ± 5.2% | 94.9 ± 2.8% | 103 ± 3.2% | 96.6 ± 9.6% | 97.4 ± 2.9% | 93.4 ± 4.4% | 99.8 ± 2.7% | 95.7 ± 3.2% | 93 ± 1.3% | 95.3 ± 1.3% | 99.5 ± 2.4% | 95.4 ± 0.42% | 103% | 97.6 ± 3.8% | 100 ± 3.4% | 88.3 ± 15% | 99.2 ± 3.1% | 89.5 ± 20% | 102 ± 6.3% | 97.7 ± 20%
N[C@@H](CS(=O)O)C(=O)O [L-cysteinesulfinic-acid] | > 10 µM | > 10 µM | > 10 µM | > 10 µM | > 10 µM | 0 | 0 | 0 | 0 | 0.2 | 91% | 95.8% | 93.2% | 95.1% | 102% | 96.8% | 93.2% | 102% | 105% | 101% | 94% | 97.3% | 105% | 111% | 107% | 99.5% | 97.3% | 98.5% | 106% | 101% | 93.5% | 90.9% | 77.8% | 89.9% | 102%
Nc1nc2[nH]cnc2c(=S)[nH]1 [thioguanine] | 2.94 µM | 1.19 µM | > 10 µM | 1.16 µM | 1.75 µM | 4.8 | 5.7 | 0.9 | 7.9 | 7.1 | 96.6% | 103% | 92.3% | 97.5% | 19.2% | 101% | 90.1% | 94.6% | 76.2% | 43.4% | 99.6% | 103% | 95% | 94.8% | 80.5% | 104% | 98.5% | 94% | 67.4% | 25.1% | 88.1% | 99% | 86.2% | 84.1% | 19.2%
O=C(Nc1ccccc1)Nc1ccc(-c2ccc(C(=O)[C@@H]3CCC[C@@H]3C(=O)O)cc2)cc1 | > 10 µM | > 10 µM | > 10 µM | > 10 µM | > 10 µM | 0 | 0.4 ± 0.42 | 0 | 0 | 0.35 ± 0.49 | 101 ± 3.9% | 98.7 ± 1.1% | 98.45 ± 0.35% | 94.3 ± 2.8% | 95.1 ± 0.57% | 99.05 ± 0.78% | 95.8 ± 1.6% | 94.35 ± 0.35% | 97 ± 13% | 85.6 ± 0.28% | 111 ± 3% | 103.8 ± 0.85% | 97.2 ± 1.4% | 98.2 ± 5.6% | 108 ± 1.9% | 98.5 ± 1.5% | 98.6 ± 5.8% | 100 ± 1.3% | 101 ± 2% | 94.2 ± 2.1% | 105.2 ± 0.49% | 96.4 ± 1.4% | 95.5 ± 10% | 92.2 ± 7% | 97.1 ± 7.3%
C[N+]1(C)CCC(OC(=O)C(c2ccccc2)c2ccccc2)CC1 [4-DAMP] | > 10 µM | > 10 µM | > 10 µM | > 10 µM | > 10 µM | 0 | 0 | 0 | 0 | 0 | 98.5% | 99.8% | 99% | 97.4% | 96% | 105% | 96.3% | 106% | 102% | 87.4% | 85.8% | 87.6% | 92.9% | 101% | 100% | 103% | 97.7% | 99.2% | 97.7% | 99.5% | 90.8% | 97% | 103% | 100% | 90.9%
CC/C=C\C/C=C\C/C=C\C/C=C\C/C=C\C/C=C\CCC(=O)OCC [doconexent-ethyl-ester] | > 10 µM | > 10 µM | > 10 µM | > 10 µM | > 10 µM | 0 | 0 | 0 | 0 | 0 | 99.5% | 101% | 98.9% | 102% | 102% | 96.9% | 108% | 96.1% | 96.5% | 100% | 99.1% | 104% | 104% | 103% | 108% | 93.6% | 96.9% | 97.3% | 103% | 99.8% | 100% | 98.9% | 87.1% | 107% | 87.2%
Nc1ncc2c(n1)CC(c1ccco1)CC2=O (stereo not given) [NKY-80] | > 10 µM | > 10 µM | > 10 µM | > 10 µM | > 10 µM | 0 | 0 | 0 | 0 | 0 | 101% | 104% | 100% | 97.7% | 101% | 97% | 98.3% | 102% | 86.4% | 97.6% | 106% | 96.1% | 110% | 101% | 94.8% | 96.4% | 97.3% | 99.7% | 97.6% | 100% | 103% | 105% | 109% | 105% | 91%
O=C(O)c1ccc(NC(=O)[C@H](Cc2ccc(O)cc2)NC(=O)c2ccccc2)cc1 [bentiromide] | > 10 µM | > 10 µM | > 10 µM | > 10 µM | > 10 µM | 0 | 0 | 0 | 0 | 0 | 93.5% | 107% | 94.4% | 99% | 106% | 92.1% | 92% | 92.3% | 87% | 104% | 107% | 101% | 104% | 95.4% | 95% | 105% | 102% | 107% | 99.5% | 108% | 91.9% | 116% | 102% | 106% | 102%
CC(=O)N(C)c1cc(-c2ccnc3c(C(=O)c4cccs4)cnn23)ccc1F [lorediplon] | > 10 µM | > 10 µM | > 10 µM | > 10 µM | > 10 µM | 0 | 0.3 | 0 | 0 | 1.1 | 97.9% | 98.9% | 93.9% | 96.3% | 91% | 100% | 93.9% | 87.5% | 95.1% | 88.1% | 90.8% | 106% | 98.6% | 104% | 99.6% | 99.2% | 97% | 97% | 96.7% | 96.6% | 94% | 107% | 95.6% | 96.1% | 80%
c1ccc(CN2CCC3(CCc4ccccc43)CC2)cc1 | > 10 µM | > 10 µM | > 10 µM | > 10 µM | > 10 µM | 0 | 0 | 0 | 0 | 0 | 97.1% | 97% | 92.8% | 94.4% | 104% | 96.9% | 97.5% | 99% | 93% | 89.6% | 99.6% | 98.5% | 108% | 95.4% | 96.5% | 102% | 102% | 101% | 99.6% | 99.6% | 95.1% | 101% | 91.9% | 106% | 102%
CS(=O)(=O)OCOS(C)(=O)=O [MDMS] | > 10 µM | > 10 µM | > 10 µM | > 10 µM | > 10 µM | 0 | 0 | 0 | 0 | 0 | 99.8% | 98.4% | 102% | 98.7% | 101% | 104% | 105% | 98.1% | 99.7% | 101% | 102% | 103% | 95.9% | 100% | 97.7% | 100% | 102% | 99.6% | 106% | 104% | 109% | 97.1% | 112% | 112% | 107%
C[C@H](NCc1ccc(OCc2ccccc2F)cc1)C(N)=O [priralfinamide] | > 10 µM | > 10 µM | > 10 µM | > 10 µM | > 10 µM | 0 | 0 | 0 | 0 | 0 | 99.5% | 95.3% | 99.4% | 92.3% | 91.7% | 97.8% | 104% | 91.6% | 95% | 91.2% | 103% | 95.2% | 105% | 91.5% | 99.5% | 99.2% | 102% | 96.5% | 99.6% | 97.6% | 98% | 87.3% | 98.5% | 97.4% | 93.6%
Cc1c(Cl)c(C)[n+]([O-])c(Cl)c1-c1noc(-c2cc(O)c(O)c([N+](=O)[O-])c2)n1 [opicapone] | > 10 µM | > 10 µM | > 10 µM | > 10 µM | > 10 µM | 0 | 0 | 0 | 0 | 0.4 | 97.3% | 96.6% | 96.3% | 98.6% | 95.8% | 87.3% | 99% | 93.8% | 111% | 95.4% | 84.3% | 106% | 95.3% | 102% | 105% | 100% | 104% | 94.4% | 102% | 104% | 108% | 103% | 110% | 88.1% | 97.9%

— the supplement of paper PMC13380429
